Data reported in the supplement of paper PMC6045584.

Assays:
Experiment in all cases: area under dose-response curve of surviving fraction (unscaled, Aref=0) (surviving fraction x log10(nM)); higher = more resistant
Conditions in all cases: exposure time: 5 days; dose range 0.5-1000 nM
CABOZANTINIB = compound: COc1cc2nccc(Oc3ccc(NC(=O)C4(C(=O)Nc5ccc(F)cc5)CC4)cc3)c2cc1OC [CABOZANTINIB]
Procedure, shortened: (§1)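 Tumour cell lines in 384-well plates were exposed to eight inhibitor concentrations, from 0.5 to 1000 nM, for five days, and viability was read by CellTiter-Glo luminescence in three screens per line. Signals were normalised to DMSO-only wells, and 3-parameter logistic regression in the drc R package fitted dose-response survival curves to the surviving fractions. Area under the curve is given as the unscaled activity area. That area is taken over log10 dose with Aref = 0.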

VORINOSTAT = compound: O=C(CCCCCCC(=O)Nc1ccccc1)NO [VORINOSTAT]
Procedure, shortened: as §1

IMATINIB = compound: Cc1ccc(NC(=O)c2ccc(CN3CCN(C)CC3)cc2)cc1Nc1nccc(-c2cccnc2)n1 [IMATINIB]
Procedure, shortened: as §1

BLEOMYCIN = compound: Cc1c(N)nc([C@H](CC(N)=O)NC[C@H](N)C(N)=O)nc1C(=O)N[C@H](C(=O)N[C@H](C)[C@@H](O)[C@H](C)C(=O)N[C@H](C(=O)NCCc1nc(-c2nc(C(=O)NCCC[S+](C)C)cs2)cs1)[C@@H](C)O)[C@@H](OC1OC(CO)C(O)C(O)C1OC1OC(CO)C(O)C(OC(N)=O)C1O)c1cnc[nH]1 [BLEOMYCIN]
Procedure, shortened: as §1

[1] = compound: CCc1cc(Nc2nccc(-c3c(-c4ccc(OC)c(C(=O)Nc5c(F)cccc5F)c4)nc4ccccn34)n2)c(OC)cc1N1CCC(N2CCN(S(C)(=O)=O)CC2)CC1
Procedure, shortened: as §1

MK-1775 = compound: C=CCn1c(=O)c2cnc(Nc3ccc(N4CCN(C)CC4)cc3)nc2n1-c1cccc(C(C)(C)O)n1 [MK-1775]
Procedure, shortened: as §1

NILOTINIB = compound: Cc1cn(-c2cc(NC(=O)c3ccc(C)c(Nc4nccc(-c5cccnc5)n4)c3)cc(C(F)(F)F)c2)cn1 [NILOTINIB]
Procedure, shortened: as §1

[2] = compound: COc1ccc(-c2cc3c(C)nc(N)nc3n([C@H]3CC[C@H](OCCO)CC3)c2=O)cn1
Procedure, shortened: as §1

AFIMOXIFENE = compound: CC/C(=C(\c1ccc(O)cc1)c1ccc(OCCN(C)C)cc1)c1ccccc1 [AFIMOXIFENE]
Procedure, shortened: as §1

BMN-673 = compound: Cn1ncnc1[C@H]1c2n[nH]c(=O)c3cc(F)cc(c23)N[C@@H]1c1ccc(F)cc1 [BMN-673]
Procedure, shortened: as §1

BEZ-235 = compound: Cn1c(=O)n(-c2ccc(C(C)(C)C#N)cc2)c2c3cc(-c4cnc5ccccc5c4)ccc3ncc21 [BEZ-235]
Procedure, shortened: as §1

[3] = compound: C[C@H](CN(C)C)Oc1nc(Nc2cc3cccc(Cl)c3cn2)cnc1C#N
Procedure, shortened: as §1

LENVATINIB = compound: COc1cc2nccc(Oc3ccc(NC(=O)NC4CC4)c(Cl)c3)c2cc1C(N)=O [LENVATINIB]
Procedure, shortened: as §1

[4] = compound: C[C@@H]1CN(CC(=O)Nc2ccc3c(c2)Cc2cccc(-c4cc(=O)cc(N5CCOCC5)o4)c2S3)C[C@H](C)O1
Procedure, shortened: as §1

Test System	area under dose-response curve (CABOZANTINIB)	area under dose-response curve (VORINOSTAT)	area under dose-response curve (IMATINIB)	area under dose-response curve (BLEOMYCIN)	area under dose-response curve [1]	area under dose-response curve (MK-1775)	area under dose-response curve (NILOTINIB)	area under dose-response curve [2]	area under dose-response curve (AFIMOXIFENE)	area under dose-response curve (BMN-673)	area under dose-response curve (BEZ-235)	area under dose-response curve [3]	area under dose-response curve (LENVATINIB)	area under dose-response curve [4]
MDAMB436 BREAST	3.27	2.84	3.32	2.47	3.2	2.4	2.98	2.03	3.33	1.5	2.23	2.74	3.2	2.84
SIHA CERVIX	3.04	3.58	3.68	–	3.53	2.93	3.47	2.34	3.74	2.87	2.36	3.45	3.63	3.5
U2OS BONE	3.26	3.23	3.59	3.02	3.38	2.46	3.59	2.54	3.56	2.8	2.68	2.9	3.24	3.54
COLO320DM LARGE INTESTINE	3.68	3.04	3.72	3.13	3.7	2.44	–	2.16	3.71	2.75	2.61	2.74	3.67	3.46
HELA CERVIX	3.33	3.3	3.58	3.15	3.49	2.7	3.53	2.88	3.54	3.22	3.17	3.28	3.67	3.72
HU09 BONE	2.66	3.08	2.91	2.58	–	2.34	2.76	1.71	3.44	2.02	2.26	2.89	2.42	3.39
SCC47 HEADNECK	3.26	3.47	3.94	2.59	3.42	2.55	3.44	2.79	4.16	–	2.85	3.17	3.62	3.53
LM7 BONE	3.43	3.26	3.59	2.46	3.23	2.34	3.1	2.32	3.53	1.78	2.77	3.17	3.27	3.09
OSHN BONE	3.22	3.47	3.71	2.72	3.42	2.85	3.28	2.99	3.65	2.4	3.19	3.08	3.63	3.42
SYO1 SYNOVIAL	2.68	3.02	3.02	1.65	3.07	2.27	2.99	1.95	3.24	0.997	2.23	2.54	2.56	3.18
OS25HAL BONE	3.05	3.21	3.47	2.85	3.27	2.36	3.17	2.12	3.51	2.71	2.66	3.06	3.19	3.38
HOS BONE	3.24	3.28	3.43	3.03	3.27	2.77	3.43	2.46	3.46	3	2.52	3.05	3.38	3.29
CAL120 BREAST	3.04	2.69	3.08	2.66	3.17	2.62	3.5	2.16	3.29	2.16	2.06	3.04	3.14	3.33
MDAMB231 BREAST	3.22	3.11	3.24	2.82	3.23	2.54	2.86	2.27	3.31	2.49	2.28	3.05	3.24	3.03
VP229 BREAST	3.43	3.08	4.06	2.61	3.66	2.75	3.75	2.08	3.71	3.22	2.64	3.45	4.16	3.29
CASKI CERVIX	3.03	2.94	3.28	1.94	3.15	2	2.97	1.97	3.25	2.72	1.99	2.76	3.28	2.98
CAL51 BREAST	3.28	3.06	3.53	2.39	3.35	2.31	3.22	2.28	3.36	1.22	1.99	2.73	3.18	3.27
JURKAT HAEMATOPOIETIC AND LYMPHOID TISSUE	3.38	3.06	3.38	2.64	3.28	2.46	3.46	2.42	3.27	2.15	2.43	2.99	3.38	3.48

Test System	area under dose-response curve (CABOZANTINIB)	area under dose-response curve (VORINOSTAT)	area under dose-response curve (IMATINIB)	area under dose-response curve (BLEOMYCIN)	area under dose-response curve [1]	area under dose-response curve (MK-1775)	area under dose-response curve (NILOTINIB)	area under dose-response curve [2]	area under dose-response curve (AFIMOXIFENE)	area under dose-response curve (BMN-673)	area under dose-response curve (BEZ-235)	area under dose-response curve [3]	area under dose-response curve (LENVATINIB)	area under dose-response curve [4]
HUO3N1 BONE	3	3.25	3.24	2.94	3.26	2.77	3.34	2.24	3.5	2.59	2.58	3.12	3.05	3.28
SKBR3 BREAST	3.38	3	3.66	2.72	–	2.64	2.88	1.77	3.71	2.55	2.41	3.03	3.48	3.21
LNCAP PROSTATE	3.11	2.63	3.3	–	2.98	2.42	3.62	1.49	3.37	1.43	1.95	2.72	3.21	4.03
MHM BONE	3.23	3.28	3.51	3.06	3.29	3.12	3.6	2.79	3.46	3.2	2.85	3.43	3.4	3.5
H23 LUNG	3.11	3.81	3.56	1.99	–	2.55	3.78	1.86	3.5	2.65	2.16	3.29	3.58	3.59
ASKA SYNOVIAL	3.68	3.14	3.79	2.57	3.91	2.32	3.26	2	3.82	1.83	2.61	2.79	3.69	3.87
HSSYII SYNOVIAL	2.98	2.82	3.24	2.09	3.08	2.05	3.09	1.93	3.31	1.15	2.12	2.56	2.64	3
HT1080 SOFT TISSUE	3.29	3.01	3.5	2.57	3.37	2.2	3.28	2.54	3.48	1.71	2.35	3.08	3.31	3.27
CHLA90 AUTONOMIC GANGLIA	2.95	3.28	3.45	2.89	3.16	2.46	3.5	2.37	3.42	2.97	2.25	2.86	3.23	3.37
JIMT1 BREAST	3.5	3.11	3.41	2.8	3.34	2.04	3.15	2.47	3.34	2.39	2.38	2.3	3.41	3.11
HCC78 LUNG	1.8	2.95	3.61	1.97	2.74	2.58	–	1.41	3.19	2.26	2.2	2.74	3.39	3.9
NY BONE	3.07	3.06	–	2.43	–	2.18	3.51	2.35	3.43	2.86	2.76	2.58	3.21	3.49
T47D BREAST	3.4	3.15	3.66	2.92	3.46	2.97	3.49	2.22	3.17	2.5	2.71	3.29	3.63	3.37
SUM159 BREAST	3.29	3.01	3.7	3.01	–	3.08	3.57	2.51	3.67	3.52	2.52	3.44	3.64	3.65
MDAMB134 BREAST	3.19	2.92	3.48	2.52	–	–	2.75	2.33	3.63	3.21	2.79	2.31	3.62	2.76
PCI30 HEADNECK	3.08	3.21	3.49	2.41	3.27	2.58	–	2.34	3.49	2.82	2.54	2.74	3.61	3.24
MCF7 BREAST	2.91	2.74	3.28	2.65	2.85	2.74	3.12	1.93	2.96	2.58	2.35	2.75	3.12	3.09
HCT15 LARGE INTESTINE	3.2	3.26	3.74	2.34	3.39	3.01	3.52	2.38	3.52	2.22	2.4	3.27	3.67	3.44
